Reference: patent US20220143123A1, “Prevention of Pathological Coagulation in COVID-19 and other Inflammatory Conditions” (priority 2020, published 2022)
Entries after “also recorded” stand apart in the source; their conditions may differ. Where two headings read alike, the source gives them in different places.

Tests used:
[1] = system: Tissue Factor; assay: TNF-alpha induced Tissue Factor expression in HUVEC, flow cytometry; assay type: cell-based, human; details: TNF-alpha stimulation 48 hours
Protocol: In the experiments below, human umbilical vein endothelial cells (HUVEC) where purchased from AllCells and grown in Opti-MEM media with complete fetal calf serum. Cells were stimulated with the indicated concentrations of TNF-alpha for 48 hours and incubated with the indicated concentrations of individual components of QuadraMune™ as well as the combination. Quantification of Tissue Factor was performedby flow cytometry and expressed as mean fluorescent intensity (MFI).

[2] = system: LPS-challenged macrophages; details: pre-incubated 6 h (0 to 50 μM), LPS 24 h; cited from earlier work
[3] = system: Nrf2 (+/+) primary peritoneal macrophages; details: cited from earlier work
[4] = system: BALB/c mice with LPS-induced ARDS; details: cited from earlier work
[5] = system: mice challenged with endotoxin (LPS O111:B4) or live Escherichia coli; details: cited from earlier work; for concentration of IL-1α: controls 1187.0±278.64
[6] = system: lipopolysaccharide-induced inflammatory reactions; details: cited from earlier work
[7] = system: mice; details: cited from earlier work
[8] = system: nuclear factor-κB (NF-κB); details: macrophage foam cells; cited from earlier work
[9] = system: rats subjected to myocardial ischemia and reperfusion; details: 10 mg/kg intravenously then 10 mg/kg/h infusion; cited from earlier work
[10] = system: lipopolysaccharide-activated macrophages; details: cited from earlier work
[11] = system: mice with experimental colitis; details: 50 and 100 mg/kg/day; cited from earlier work
[12] = system: mice with LPS-induced ARDS; details: 10 mg/kg ip; cited from earlier work
[13] = system: C57BL6 mice; details: 10 mg/kg intraperitoneally, 72 h after CL2P; cited from earlier work
[14] = system: male Sprague-Dawley rats; details: 10 mg/kg intraperitoneally at 1 and 6 h after CL2P and every 12 h; cited from earlier work
[15] = system: human umbilical vein VECs (HUVECs); details: oxLDL 200 μg/ml; cited from earlier work
[16] = system: apoE(−/−) mice; details: injection; cited from earlier work
[17] = system: NK cell; assay: Nanostilbene in cancer patients: NK cell activity and interferon gamma production; assay type: in vivo, human; details: pterostilbene administered in the form of nanostilbene in cancer patients
[18] = animal studies; cited from earlier work
[19] = system: interleukin-1, interleukin-6, interleukin-8, TNF-alpha; details: cited from earlier work
[20] = system: lectin-like oxLDL receptor-1 (LOX-1); details: in vitro and in vivo; cited from earlier work
[21] = 50 mg/kg, LPS 5 mg/kg 3 days later

Compound: C[S+]([O-])CCCCN=C=S (stereo not drawn) [sulforaphane, 1-isothiocyanato-4-(methylsulfinyl)-butane]
- TNF-alpha induced Tissue Factor expression (mean fluorescent intensity) [1]: reduction of TNF-alpha induced Tissue Factor expression
- TNF-alpha induced Tissue Factor expression (mean fluorescent intensity) ([1]; listed as Sulforaphane): reduces inflammation induced tissue factor expression
- expression of NO and cytokines [2]: able to prevent the expression of NO and cytokines
- HO-1 expression ([3]; LPS-stimulated Nrf2 (+/+) macrophages): significantly augmented
- LPS-stimulated mRNA expression, protein expression and production of TNF-alpha, IL-1beta, COX-2 and iNOS ([3]; pretreatment, Nrf2 (+/+) macrophages): potently inhibited
- serum levels of IL-6 and TNF-α, nuclear factor-κB protein expression ([4]; 50 mg/kg, ELISA): significantly decreased
- lactate dehydrogenase (LDH) activity [4, 21]: significantly decreased
- wet-to-dry ratio of the lungs [4, 21]: significantly decreased
- PGE2 production, COX-2 and MMP-9 protein expression, iNOS activity ([4]; 50 mg/kg): significantly inhibited
- Nrf2/antioxidant response element (ARE) pathway ([4]; pre-treatment): activated

Compound: CC1=CC(=O)C(C(C)C)=CC1=O [thymoquinone]
- TNF-alpha induced Tissue Factor expression (mean fluorescent intensity) [1]: reduction of TNF-alpha induced Tissue Factor expression
- TNF-alpha induced Tissue Factor expression (mean fluorescent intensity) ([1]; listed as Thymoquinone): reduces inflammation induced tissue factor expression
- concentration of IL-1α ([5]; 0.75 mg/kg dose): 310.8 ± 70.93 pg/mL
- IL-10 levels ([5]; 0.75 mg/kg, controls 5505.2±333.96): 2885.0 ± 553.98 pg/mL
- concentration of IL-1α ([5]; 1 mg/kg group): 428.3 ± 71.32 pg/mL
- levels of TNF-α and IL-2 ([5]; P values=0.1817 and 0.0851): relatively lower levels of TNF-α and IL-2
- reduction of mortality ([5]; mice, sepsis): 80-90%
- renal and hepatic biomarker profiles ([5]; mice, sepsis): improved both renal and hepatic biomarker profiles
- lipopolysaccharide-induced inflammatory reactions [6]: suppressed effectively the lipopolysaccharide-induced inflammatory reactions
- concentration of nitric oxide ([6]; marker of inflammation): reduced significantly the concentration of nitric oxide

Compound: epigallocatechin-3-gallate [EGCG]
- TNF-alpha induced Tissue Factor expression (mean fluorescent intensity) [1]: reduces inflammation induced tissue factor expression; also recorded: reduction of TNF-alpha induced Tissue Factor expression
- rescue from lethal sepsis ([7]; first dose 24 hours after cecal ligation and puncture): rescued mice from lethal sepsis
- protection against lethal endotoxemia ([7]; intraperitoneal administration): protected mice against lethal endotoxemia
- TNF-α-induced NF-κB activity [8]: inhibition of the TNF-α-induced nuclear factor-κB (NF-κB) activity
- myocardial damage and myeloperoxidase activity [9]: reduced myocardial damage and myeloperoxidase activity
- plasma IL-6 and creatine phosphokinase levels [9]: decreased
- activation of nuclear factor-kappaB ([10]; electrophoretic mobility shift assay): blocked the activation of nuclear factor-kappaB
- nitric oxide (NO) generation ([10]; marker of activated macrophages): inhibit nitric oxide (NO) generation
- plasma levels of IL-10 and TGF-β1 [11]: increasing the plasma levels of IL-10 and TGF-β1
- release of IL-6 and IL-17 [11]: reduce the release of IL-6 and IL-17
- expression of TNF-α, IL-1β and IL-6 in lung, serum and bronchoalveolar lavage fluid [12]: significantly decreased
- survival [13]: significantly improved
- hypotension (mean arterial blood pressure) [14]: significantly improved

Compound: trans-3,5-dimethoxy-4-hydroxystilbene [pterostilbene]
- TNF-alpha induced Tissue Factor expression (mean fluorescent intensity) [1]: reduction of TNF-alpha induced Tissue Factor expression
- TNF-alpha induced Tissue Factor expression (mean fluorescent intensity) ([1]; listed as Pterostilbene): reduces inflammation induced tissue factor expression
- protection against oxLDL-induced cell shrinkage, chromatin condensation, nuclear fragmentation, apoptosis [15]: protected against such injuries
- number of TUNEL-positive cells in the endothelium of atherosclerotic plaque [16]: strongly decreased the number of TUNEL-positive cells
- NK cell activity [17]: increased NK cell activity
- interferon gamma production [17]: increased
- bioavailability [18]: 80%
- inhibition of inflammatory cytokines (interleukin-1, interleukin-6, interleukin-8, TNF-alpha) [19]: inhibit inflammatory cytokines associated with ARDS
- LOX-1 expression [20]: inhibited the expression of lectin-like oxLDL receptor-1 (LOX-1)
